“Also recorded” adds a separate entry of the source.
Legend:
[1] = test system: chemokine receptors; settings: two D-substitutions in peptide T; cited from earlier work
[2] = test system: CCR5/CCR2 chemokine receptor system, CCL2 chemotaxis of human monocytes; experiment: CCL2 (MCP-1) mediated human monocyte chemotaxis (FIG. 1); format: cell-based; settings: FIG. 1, triplicate determinations
Excerpt: FIG. 1 illustrates that all-D-pentapeptide analogs of Peptide T inhibit CCL2 mediated human monocyte chemotaxis.
In order to overcome this limitation we hereby disclose an unexpected method of preserving potency. […] B. Pert, J. D. Rone, R. Nixon, M. Vance, B. Sandler, M. D. Lumpkin, D. J. Dieter, and M. R. Ruff. 1999. Peptide T blocks GP120/CCR5 chemokine receptor-mediated chemotaxis. Clin Immunol.
The FIG. 1 assay measured the peptide's ability to block CCL2 (MCP-1) chemotaxis.

[3] = test system: neuropathic pain and inflammation; settings: animals; cited from earlier work
[4] = test system: HIV (92HT596; R5/X4 isolate) entry via CXCR4, MAGI-CXC4 cells; settings: peptide 1 nM, 48 hrs, mean and s.e.m of triplicate cultures; cited from earlier work
[5] = test system: HIV (92HT596; R5/X4 isolate) entry via CCR5, MAGI-CCR5 cells; settings: peptide 1 nM, 48 hrs, mean and s.e.m of triplicate cultures; cited from earlier work
[6] = test system: HIV gp120 neurotoxicity; settings: cited from earlier work; for EC50: read-out: EC50 (pM), antagonism of HIV gp120 neurotoxicity

Question: With (D-A1, D-T8)-peptide T-NH2 as the substance, how does the “loss of potency versus peptide T” value [1] read?
Answer: over 100,000 fold

Question: Which results are given for (all-D)-TTNYT?
Answer: block of CCL2 (MCP-1) chemotaxis / CCR5/CCR2 chemokine receptor system [2]: blocked; oral efficacy [3]: prevent and reverse neuropathic pain and block inflammation

Question: For ETWYS, which “BFU (% Control) MAGI-CXC4” value [4] is on record?
Answer: 65 +/− 5 % Control

Question: And the “BFU (% Control) MAGI-CCR5” value [5]?
Answer: 21 +/− 7 % Control

Question: And the EC50 [6]?
Answer: 13 pM

Question: Which “BFU (% Control) MAGI-CXC4” value [4] does the source give for NTSYG here?
Answer: 60 +/− 8| % Control

Question: And the EC50 [6]?
Answer: 10 pM

Question: For SSTYR, which EC50 [6] is on record?
Answer: 1 pM

Question: Which EC50 [6] does the source give for STNYT here?
Answer: 3 pM

Question: With TDNYT [reference compound] as the substance, how does the EC50 [6] read?
Answer: 3000 pM

Question: For TENYT [reference compound], which “EC50 (pM), antagonism of HIV gp120 neurotoxicity” value [6] is on record?
Answer: inactive

Question: Which “BFU (% Control) MAGI-CXC4” value [4] does the source give for TTNYT here?
Answer: 45 +/− 7 % Control

Question: And the “BFU (% Control) MAGI-CCR5” value [5]?
Answer: 23 +/− 4 % Control

Question: And the EC50 [6]?
Answer: 10 pM

Question: With TTNdYT [reference compound] as the substance, how does the “EC50 (pM), antagonism of HIV gp120 neurotoxicity” value [6] read?
Answer: inactive

Question: And the “activity / biopotency (gp120 neurotoxicity)” value [6]?
Answer: loss of all activity; also recorded: completely loses activity

Question: With TTSFT [reference compound] as the substance, how does the EC50 [6] read?
Answer: 100000 pM

Question: For TTSYT, which “BFU (% Control) MAGI-CXC4” value [4] is on record?
Answer: 35 +/− 7 % Control

Question: What about the “BFU (% Control) MAGI-CCR5” value [5] of the same substance?
Answer: 23 +/− 5 % Control

Question: What about the EC50 [6] of the same substance?
Answer: 10 pM

Reference: patent US20140322251A1, “Peptides for Progressive Treating Multi-Focal Leukoencephalopathy and Related Conditions” (priority 2013, published 2014)
